Laboratory results: PMC11866407, “Structure of Clostridium leptum carboxyspermidine decarboxylase and comparison to homologs prevalent within the human gut microbiome” (Acta Crystallographica Section F: Structural Biology …, 2025)

Molecular target: T1, Clostridium leptum carboxyspermidine decarboxylase (ClCASDC) ([Clostridium] leptum, UniProt A7VSG2)
T1 construct: gene nspC; full length (376 residues), N-terminal His6 tag kept (pET-28b NdeI/XhoI), E. coli BL21 (DE3), codon-optimized; homodimer
T1 sequence (A7VSG2 1-376): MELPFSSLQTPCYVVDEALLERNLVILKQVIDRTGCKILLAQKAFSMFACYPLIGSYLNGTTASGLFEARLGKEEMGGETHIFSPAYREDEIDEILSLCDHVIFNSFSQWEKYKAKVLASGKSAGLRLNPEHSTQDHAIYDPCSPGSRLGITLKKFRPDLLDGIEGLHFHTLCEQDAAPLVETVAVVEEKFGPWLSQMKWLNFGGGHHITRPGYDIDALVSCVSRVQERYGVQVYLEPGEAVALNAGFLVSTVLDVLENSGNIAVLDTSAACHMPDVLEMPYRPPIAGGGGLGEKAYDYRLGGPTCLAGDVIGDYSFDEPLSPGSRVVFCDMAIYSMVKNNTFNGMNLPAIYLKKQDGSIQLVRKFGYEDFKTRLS
Test: X-ray crystal structure, […] Å
Format: binding
Details: covalent; Schiff base (internal aldimine) with Lys43; pre-incubated with 100 µM PLP, 5 mM DTT; HEPES pH 6.8; both chains

Structure (SMILES): Cc1ncc(COP(=O)(O)O)c(C=O)c1O [PLP, pyridoxal 5′-phosphate]
- X-ray crystal structure, 1.41 Å: PLP forms a Schiff base with Lys43 in both chains
